From the kinase profiling compilation of Christmann-Franck et al. (2016)
Values joined by “and” are separate entries in the source; they are usually repeats but may differ in a detail not shown here. Identical values can stand only once.

What was measured:
Assay in all cases: Caliper, Mobility shift assay off-chip
TEC (human) = TEC (human) (UniProt P42680)
MAPK7 (human) = MAPK7 (human) (UniProt Q13164)
TNK2 (human) = TNK2 (human) (UniProt Q07912)
MAPK11 (human) = MAPK11 (human) (UniProt Q15759)
MAPK14 (human) = MAPK14 (human) (UniProt Q16539)
FLT3 (human) = FLT3 (human) (UniProt P36888)
Chain of FLT3 (human) (P36888 whole entry, looked up): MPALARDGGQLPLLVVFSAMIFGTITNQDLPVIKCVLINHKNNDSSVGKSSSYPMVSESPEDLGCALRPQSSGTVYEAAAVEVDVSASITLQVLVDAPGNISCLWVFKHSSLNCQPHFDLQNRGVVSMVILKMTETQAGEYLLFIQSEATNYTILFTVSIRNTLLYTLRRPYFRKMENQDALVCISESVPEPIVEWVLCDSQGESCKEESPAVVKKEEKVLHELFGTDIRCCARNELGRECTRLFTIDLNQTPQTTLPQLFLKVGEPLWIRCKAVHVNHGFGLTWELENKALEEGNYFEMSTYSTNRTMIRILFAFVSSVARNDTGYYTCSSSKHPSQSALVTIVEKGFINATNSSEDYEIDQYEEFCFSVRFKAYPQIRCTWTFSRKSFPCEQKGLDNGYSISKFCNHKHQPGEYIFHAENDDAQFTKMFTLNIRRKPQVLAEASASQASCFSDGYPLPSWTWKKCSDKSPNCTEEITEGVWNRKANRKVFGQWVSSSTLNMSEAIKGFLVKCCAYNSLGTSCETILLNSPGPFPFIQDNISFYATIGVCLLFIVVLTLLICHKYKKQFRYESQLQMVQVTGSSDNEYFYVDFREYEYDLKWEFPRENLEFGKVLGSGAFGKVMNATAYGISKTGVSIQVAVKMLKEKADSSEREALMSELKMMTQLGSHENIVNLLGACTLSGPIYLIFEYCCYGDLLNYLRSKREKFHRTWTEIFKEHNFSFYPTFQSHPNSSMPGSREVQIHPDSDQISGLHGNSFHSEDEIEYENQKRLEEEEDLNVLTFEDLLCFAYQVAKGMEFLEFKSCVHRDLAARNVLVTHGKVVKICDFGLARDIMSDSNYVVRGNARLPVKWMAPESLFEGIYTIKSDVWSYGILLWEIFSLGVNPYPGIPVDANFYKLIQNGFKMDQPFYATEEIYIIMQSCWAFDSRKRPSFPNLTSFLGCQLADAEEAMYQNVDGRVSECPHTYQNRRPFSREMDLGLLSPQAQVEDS

IKBKE (human) = IKBKE (human) (UniProt Q14164)
EPHA5 (human) = EPHA5 (human) (UniProt P54756)
WNK3 (human) = WNK3 (human) (UniProt Q9BYP7)
PASK (human) = PASK (human) (UniProt Q96RG2)
WNK2 (human) = WNK2 (human) (UniProt Q9Y3S1)
Chain of WNK2 (human) (Q9Y3S1 whole entry, looked up): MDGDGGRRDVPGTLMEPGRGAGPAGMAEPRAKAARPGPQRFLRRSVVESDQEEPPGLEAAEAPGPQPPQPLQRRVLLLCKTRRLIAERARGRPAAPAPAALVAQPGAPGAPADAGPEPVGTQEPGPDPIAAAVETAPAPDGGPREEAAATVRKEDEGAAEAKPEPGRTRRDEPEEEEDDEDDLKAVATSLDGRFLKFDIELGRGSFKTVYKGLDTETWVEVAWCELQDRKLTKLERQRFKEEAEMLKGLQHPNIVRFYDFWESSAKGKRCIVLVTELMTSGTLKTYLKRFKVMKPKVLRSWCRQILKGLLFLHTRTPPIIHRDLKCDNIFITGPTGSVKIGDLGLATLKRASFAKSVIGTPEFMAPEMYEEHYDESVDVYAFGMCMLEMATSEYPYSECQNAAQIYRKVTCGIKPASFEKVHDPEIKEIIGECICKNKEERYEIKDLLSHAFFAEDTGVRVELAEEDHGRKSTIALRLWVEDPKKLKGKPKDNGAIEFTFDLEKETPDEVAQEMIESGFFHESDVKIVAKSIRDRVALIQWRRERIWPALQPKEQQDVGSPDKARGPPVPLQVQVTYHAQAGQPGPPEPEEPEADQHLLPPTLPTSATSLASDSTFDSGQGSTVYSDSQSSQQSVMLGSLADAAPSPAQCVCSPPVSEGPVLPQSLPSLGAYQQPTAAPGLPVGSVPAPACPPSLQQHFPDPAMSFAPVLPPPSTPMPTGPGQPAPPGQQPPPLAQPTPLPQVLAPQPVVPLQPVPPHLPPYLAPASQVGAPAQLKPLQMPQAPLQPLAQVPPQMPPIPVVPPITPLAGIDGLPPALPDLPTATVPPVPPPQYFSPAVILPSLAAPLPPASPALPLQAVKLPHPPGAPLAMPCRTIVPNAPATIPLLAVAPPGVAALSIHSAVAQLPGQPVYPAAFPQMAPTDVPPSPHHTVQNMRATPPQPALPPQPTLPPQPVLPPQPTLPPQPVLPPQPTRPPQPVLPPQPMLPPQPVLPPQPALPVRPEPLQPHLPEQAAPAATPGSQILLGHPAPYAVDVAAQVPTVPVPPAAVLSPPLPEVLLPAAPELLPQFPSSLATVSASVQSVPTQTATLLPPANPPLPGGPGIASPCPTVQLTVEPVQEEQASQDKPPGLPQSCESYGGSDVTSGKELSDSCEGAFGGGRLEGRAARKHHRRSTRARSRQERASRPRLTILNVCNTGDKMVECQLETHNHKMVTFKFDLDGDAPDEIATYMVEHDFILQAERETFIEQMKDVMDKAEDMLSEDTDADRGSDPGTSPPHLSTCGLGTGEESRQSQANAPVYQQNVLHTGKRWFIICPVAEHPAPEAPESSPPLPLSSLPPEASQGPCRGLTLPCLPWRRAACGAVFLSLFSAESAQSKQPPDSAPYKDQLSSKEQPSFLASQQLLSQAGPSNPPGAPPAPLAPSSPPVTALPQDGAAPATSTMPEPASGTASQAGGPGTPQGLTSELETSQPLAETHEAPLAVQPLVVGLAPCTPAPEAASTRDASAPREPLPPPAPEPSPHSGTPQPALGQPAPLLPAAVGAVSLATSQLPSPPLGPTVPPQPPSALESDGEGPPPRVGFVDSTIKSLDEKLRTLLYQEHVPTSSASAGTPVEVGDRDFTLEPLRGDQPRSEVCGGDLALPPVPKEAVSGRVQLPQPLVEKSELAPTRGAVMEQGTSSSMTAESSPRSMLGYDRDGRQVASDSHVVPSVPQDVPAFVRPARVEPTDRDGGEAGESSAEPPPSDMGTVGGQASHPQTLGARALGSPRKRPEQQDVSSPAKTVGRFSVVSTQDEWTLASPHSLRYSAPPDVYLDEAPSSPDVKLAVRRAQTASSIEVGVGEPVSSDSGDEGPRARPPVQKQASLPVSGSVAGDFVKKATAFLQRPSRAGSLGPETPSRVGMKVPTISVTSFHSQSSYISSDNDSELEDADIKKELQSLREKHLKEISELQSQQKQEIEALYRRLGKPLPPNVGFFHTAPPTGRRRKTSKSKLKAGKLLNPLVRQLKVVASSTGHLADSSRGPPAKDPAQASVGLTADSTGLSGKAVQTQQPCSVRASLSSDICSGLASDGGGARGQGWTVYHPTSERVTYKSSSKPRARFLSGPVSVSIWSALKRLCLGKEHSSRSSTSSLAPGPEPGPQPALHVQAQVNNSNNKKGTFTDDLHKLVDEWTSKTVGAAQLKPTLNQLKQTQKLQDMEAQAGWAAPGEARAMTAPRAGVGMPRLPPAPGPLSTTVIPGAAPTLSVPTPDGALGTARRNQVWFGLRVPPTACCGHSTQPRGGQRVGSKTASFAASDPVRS

MAPKAPK5 (human) = MAPKAPK5 (human) (UniProt Q8IW41)
CIT (human) = CIT (human) (UniProt O14578)
CAMK2G (human) = CAMK2G (human) (UniProt Q13555)
TSSK2 (human) = TSSK2 (human) (UniProt Q96PF2)
Chain of TSSK2 (human) (Q96PF2 whole entry, looked up): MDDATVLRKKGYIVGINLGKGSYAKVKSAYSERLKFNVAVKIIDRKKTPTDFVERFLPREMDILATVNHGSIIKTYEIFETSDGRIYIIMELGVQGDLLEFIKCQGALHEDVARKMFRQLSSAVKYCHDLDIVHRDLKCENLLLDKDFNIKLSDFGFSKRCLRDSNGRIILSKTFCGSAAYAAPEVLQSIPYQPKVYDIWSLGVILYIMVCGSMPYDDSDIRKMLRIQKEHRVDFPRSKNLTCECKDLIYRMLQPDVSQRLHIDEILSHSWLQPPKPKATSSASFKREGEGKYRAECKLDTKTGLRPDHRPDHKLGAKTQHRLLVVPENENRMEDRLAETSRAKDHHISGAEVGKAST

RPS6KB1 (human) = RPS6KB1 (human) (UniProt P23443)
LATS2 (human) = LATS2 (human) (UniProt Q9NRM7)
PIM2 (human) = PIM2 (human) (UniProt Q9P1W9)
EPHB1 (human) = EPHB1 (human) (UniProt P54762)
PAK6 (human) = PAK6 (human) (UniProt Q9NQU5)
SRC (human) = SRC (human) (UniProt P12931)
DYRK1B (human) = DYRK1B (human) (UniProt Q9Y463)
PRKD2 (human) = PRKD2 (human) (UniProt Q9BZL6)
STK3 (human) = STK3 (human) (UniProt Q13188)
PRKD1 (human) = PRKD1 (human) (UniProt Q15139)
IRAK1 (human) = IRAK1 (human) (UniProt P51617)
CDK2 (human) = CDK2 (human) (UniProt P24941)
CAMK1 (human) = CAMK1 (human) (UniProt Q14012)
SYK (human) = SYK (human) (UniProt P43405)
ERBB2 (human) = ERBB2 (human) (UniProt P04626)
Chain of ERBB2 (human) (P04626 whole entry, looked up): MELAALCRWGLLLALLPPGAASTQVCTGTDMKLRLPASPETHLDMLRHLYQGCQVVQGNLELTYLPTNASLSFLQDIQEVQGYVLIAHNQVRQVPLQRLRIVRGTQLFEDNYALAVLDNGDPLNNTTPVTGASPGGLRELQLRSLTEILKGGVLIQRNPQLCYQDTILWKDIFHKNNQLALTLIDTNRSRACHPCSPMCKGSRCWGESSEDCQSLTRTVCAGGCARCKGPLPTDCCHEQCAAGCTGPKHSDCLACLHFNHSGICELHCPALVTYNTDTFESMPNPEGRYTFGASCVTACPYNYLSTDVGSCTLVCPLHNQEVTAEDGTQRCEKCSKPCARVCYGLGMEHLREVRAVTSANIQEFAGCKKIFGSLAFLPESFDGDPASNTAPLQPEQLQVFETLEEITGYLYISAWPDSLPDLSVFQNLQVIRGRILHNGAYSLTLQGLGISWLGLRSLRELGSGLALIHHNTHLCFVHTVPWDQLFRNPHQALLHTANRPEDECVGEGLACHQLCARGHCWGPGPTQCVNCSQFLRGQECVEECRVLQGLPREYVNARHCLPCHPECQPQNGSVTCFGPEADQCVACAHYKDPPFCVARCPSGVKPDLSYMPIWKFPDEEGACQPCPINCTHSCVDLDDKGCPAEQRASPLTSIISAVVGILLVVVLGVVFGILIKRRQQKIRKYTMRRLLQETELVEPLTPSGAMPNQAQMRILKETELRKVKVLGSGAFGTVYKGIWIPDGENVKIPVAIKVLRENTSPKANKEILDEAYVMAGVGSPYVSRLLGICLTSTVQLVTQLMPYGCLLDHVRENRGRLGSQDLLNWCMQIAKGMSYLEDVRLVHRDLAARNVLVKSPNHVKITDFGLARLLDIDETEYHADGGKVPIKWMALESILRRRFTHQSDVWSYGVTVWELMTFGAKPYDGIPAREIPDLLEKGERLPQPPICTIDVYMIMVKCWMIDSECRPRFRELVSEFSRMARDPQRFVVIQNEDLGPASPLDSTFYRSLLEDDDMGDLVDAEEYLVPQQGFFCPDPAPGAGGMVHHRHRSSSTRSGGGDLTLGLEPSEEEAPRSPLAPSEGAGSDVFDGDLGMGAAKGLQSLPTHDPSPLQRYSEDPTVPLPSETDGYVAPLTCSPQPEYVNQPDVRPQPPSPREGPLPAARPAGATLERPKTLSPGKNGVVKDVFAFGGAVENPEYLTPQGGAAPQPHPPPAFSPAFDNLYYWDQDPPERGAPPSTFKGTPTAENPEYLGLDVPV

`Cc1ccc(Nc2nccc(N(C)c3ccc4c(C)n(C)nc4c3)n2)cc1S(N)(=O)=O` was tested, and the inhibition (TEC (human); compound 0.02 µM) was 4.8%, the inhibition (TEC (human); compound 0.2 µM) was 19.7% and the inhibition (MAPK7 (human); compound 0.02 µM) was -7.8%. For the same molecule, the inhibition (MAPK7 (human); compound 0.2 µM) was -7.6%, the inhibition (TNK2 (human); compound 0.02 µM) was -5.7% and the inhibition (TNK2 (human); compound 0.2 µM) was -3.6%. For the same molecule, the inhibition (MAPK11 (human); compound 0.02 µM) was -6.7%, the inhibition (MAPK11 (human); compound 0.2 µM) was 0.9% and the inhibition (MAPK14 (human); compound 0.02 µM) was -9%. For the same molecule, the inhibition (MAPK14 (human); compound 0.2 µM) was -2.5%, the inhibition (FLT3 (human); compound 0.02 µM) was 24.7% and the inhibition (FLT3 (human); compound 0.2 µM) was 69.9%. It also gave an inhibition (IKBKE (human); compound 0.02 µM) of -3.4%, an inhibition (IKBKE (human); compound 0.2 µM) of -7.1% and an inhibition (EPHA5 (human); compound 0.02 µM) of -2.7%. The inhibition (EPHA5 (human); compound 0.2 µM) was 4.7%, the inhibition (WNK3 (human); compound 0.02 µM) was -0.8% and the inhibition (WNK3 (human); compound 0.2 µM) was 3.2%. The inhibition (PASK (human); compound 0.02 µM) was -0.6%, the inhibition (PASK (human); compound 0.2 µM) was 3.1% and the inhibition (WNK2 (human); compound 0.02 µM) was 1%. It also gave an inhibition (WNK2 (human); compound 0.2 µM) of 4.3%, an inhibition (MAPKAPK5 (human); compound 0.02 µM) of 3.2% and an inhibition (MAPKAPK5 (human); compound 0.2 µM) of 4.8%. It also gave an inhibition (CIT (human); compound 0.02 µM) of -2.3%, an inhibition (CIT (human); compound 0.2 µM) of 0.3% and an inhibition (CAMK2G (human); compound 0.02 µM) of 1.9%. It also gave an inhibition (CAMK2G (human); compound 0.2 µM) of 2%, an inhibition (TSSK2 (human); compound 0.02 µM) of -4.3% and an inhibition (TSSK2 (human); compound 0.2 µM) of -2.4%. It also gave an inhibition (RPS6KB1 (human); compound 0.02 µM) of 11.1%, an inhibition (RPS6KB1 (human); compound 0.2 µM) of 20.6% and an inhibition (LATS2 (human); compound 0.02 µM) of -2.1%. It also gave an inhibition (LATS2 (human); compound 0.2 µM) of -0.3%, an inhibition (PIM2 (human); compound 0.02 µM) of 2.7% and an inhibition (PIM2 (human); compound 0.2 µM) of 6.8%. For the same molecule, the inhibition (EPHB1 (human); compound 0.02 µM) was -1%, the inhibition (EPHB1 (human); compound 0.2 µM) was -1.6% and the inhibition (PAK6 (human); compound 0.02 µM) was -5.8%. It also gave an inhibition (PAK6 (human); compound 0.2 µM) of -5.8%, an inhibition (SRC (human); compound 0.02 µM) of 8.4% and an inhibition (SRC (human); compound 0.2 µM) of 42.7%. It also gave an inhibition (DYRK1B (human); compound 0.02 µM) of -4.3%, an inhibition (DYRK1B (human); compound 0.2 µM) of 7.4% and an inhibition (PRKD2 (human); compound 0.02 µM) of -2.2%. The inhibition (PRKD2 (human); compound 0.2 µM) was -1.5%, the inhibition (STK3 (human); compound 0.02 µM) was -1.9% and the inhibition (STK3 (human); compound 0.2 µM) was -4.2%. The inhibition (PRKD1 (human); compound 0.02 µM) was -1.1%, the inhibition (PRKD1 (human); compound 0.2 µM) was -0.8% and the inhibition (IRAK1 (human); compound 0.02 µM) was -17.4%. For the same molecule, the inhibition (IRAK1 (human); compound 0.2 µM) was -14.6%, the inhibition (CDK2 (human); compound 0.02 µM) was -0.1% and -1.7% and the inhibition (CDK2 (human); compound 0.2 µM) was -1.7% and -2.8%. For the same molecule, the inhibition (CAMK1 (human); compound 0.02 µM) was -2.3%, the inhibition (CAMK1 (human); compound 0.2 µM) was 1.4% and the inhibition (SYK (human); compound 0.02 µM) was 4.4%. The inhibition (SYK (human); compound 0.2 µM) was -4.7%, the inhibition (ERBB2 (human); compound 0.02 µM) was 0% and the inhibition (ERBB2 (human); compound 0.2 µM) was -1.5%.
